{"source": "patent US20080025918A1", "about": "“Invisible light fluorescent platelets for intraoperative detection of vascular thrombosis” (Beth Israel Deaconess Medical Center, Inc., priority 2006, published 2008)", "key": {"[1]": {"tested_on": "resting platelets", "test": "P-selectin surface expression of resting loaded platelets", "assay_type": "cell-based, human", "details": "resting platelets loaded with 2 μM IR-786"}, "[2]": {"test": "Spectral characteristics and relative fluorescence yield of IR-786 (absorbance and fluorescence measurements)", "assay_type": "physicochemical", "details": "for Relative Fluorescence Yield: samples matched for absorbance, 655 nm excitation", "method": "Absorbance and fluorescence measurements were performed in 1 cm quartz cuvettes as described previously (Ohnishi et al., Mol. Imaging., 2005; 4(3):172-181). For measurement of relative fluorescence yield, IR-786 samples in Tyrodes-HEPES, methanol, or concentrated in washed platelets were matched for absorbance (0.1 A units) and area under the fluorescence emission curve calculated after excitation with a 5 mW 655 nm laser diode."}, "[3]": {"tested_on": "washed pig platelets", "test": "Pig platelet aggregation (aggregometry)", "assay_type": "cell-based", "details": "washed pig platelets incubated 30 minutes with 2 μM IR-786", "method": "To ensure that platelets loaded with 2 μM IR-786 retained function, the ability of IR-786-loaded platelets to aggregate in response to agonists was assessed. Loaded and non-loaded human platelets, resuspended at a density of 4×10^8 cells/mL in modified Tyrodes-HEPES buffer, were stimulated with agonists in siliconized glass tubes in an optical aggregometer (Chronolog, Havertown, Pa.). Assays were performed at 37° C. and with constant stirring. Aggregation was monitored by measurement of optical density of the platelet suspension (Croce et al., J. Biol. Chem., 1999; 274(51):36321-36327)\nThe ability of pig platelets to aggregate following incubation with IR-786 was also tested, using aggregometry as described above."}, "[4]": {"details": "following incorporation into platelets"}}, "data": [{"smiles": "CN1C(=CC=C2CCCC(C=CC3=[N+](C)c4ccccc4C3(C)C)=C2Cl)C(C)(C)c2ccccc21.[O-][Cl+3]([O-])([O-])[O-]", "note": "[IR-786]", "values": [{"measurement": "P-selectin surface expression (platelet activation)", "setting": "[1]", "value": "no significant P-selectin surface expression"}, {"measurement": "emission maximum", "setting": "[2]; [4]", "value": 804, "unit": "nm"}, {"measurement": "excitation maximum", "setting": "[2]; [4]", "value": 788, "unit": "nm"}, {"measurement": "Peak Absorbance", "setting": "[2]; in Methanol", "value": 775, "unit": "nm"}, {"measurement": "Peak Emission", "setting": "[2]; in Methanol", "value": 797, "unit": "nm"}, {"measurement": "Relative Fluorescence Yield", "setting": "[2]; in Methanol", "value": 9.5}, {"measurement": "Peak Absorbance", "setting": "[2]; in Platelets", "value": 788, "unit": "nm"}, {"measurement": "Peak Emission", "setting": "[2]; in Platelets", "value": 804, "unit": "nm"}, {"measurement": "Relative Fluorescence Yield", "setting": "[2]; in Platelets", "value": 1.0}, {"measurement": "Peak Absorbance", "setting": "[2]; in Tyrode's-HEPES", "value": 769, "unit": "nm"}, {"measurement": "Peak Emission", "setting": "[2]; in Tyrode's-HEPES", "value": 789, "unit": "nm"}, {"measurement": "Relative Fluorescence Yield", "setting": "[2]; in Tyrode's-HEPES", "value": 1.4}, {"measurement": "emission maximum", "setting": "[2]; in aqueous buffer", "value": 788.8, "unit": "nm"}, {"measurement": "excitation maximum", "setting": "[2]; in aqueous buffer", "value": 769.3, "unit": "nm"}, {"measurement": "aggregation in response to thrombin or CRP", "setting": "[3]", "value": "aggregated normally"}]}]}
